# In ChEMBL document CHEMBL5126538, “A score years' update in the synthesis and biological evaluation of medicinally important 2-pyridones” (Eur J Med Chem, 2022):
# Columns and labels:
# Coxsackievirus B4 = experiment: Antiviral activity against Coxsackievirus B4 infected in African green monkey BGM cells assessed as reduction in viral growth incubated for 0.5 hrs followed by cell infection measured after 1 hr by crystal violet staining based assay relative to control; format: functional; set-up: scale not given: the % may be the effect or the level left; conditions: time 1.5 hrs
# Human adenovirus 7 = experiment: Antiviral activity against Human adenovirus 7 infected in human HEp-2 cells assessed as reduction in viral growth incubated for 0.5 hrs followed by cell infection measured after 1 hr by crystal violet staining based assay relative to control; format: functional; set-up: scale not given: the % may be the effect or the level left; conditions: time 1.5 hrs
# Hepatovirus A = experiment: Antiviral activity against Hepatitis A virus HM175 infected in monkey FRhK-4 cells assessed as reduction in viral growth incubated for 0.5 hrs followed by cell infection measured after 1 hr by crystal violet staining based assay relative to control; format: functional; set-up: scale not given: the % may be the effect or the level left; conditions: time 1.5 hrs
# Human alphaherpesvirus 1 = experiment: Antiviral activity against […] type 1 infected in African green monkey Vero cells assessed as reduction in viral growth incubated for 0.5 hrs followed by cell infection measured after 1 hr by crystal violet staining based assay relative to control; format: functional; set-up: scale not given: the % may be the effect or the level left; conditions: time 1.5 hrs
# [1] = molecular target: Interleukin-6 (Homo sapiens) (UniProt P05231); experiment: Inhibition of IL-6 (unknown origin) relative to control; conditions: concentration not given here
# Interleukin-6 (Homo sapiens), sequence (P05231 whole entry): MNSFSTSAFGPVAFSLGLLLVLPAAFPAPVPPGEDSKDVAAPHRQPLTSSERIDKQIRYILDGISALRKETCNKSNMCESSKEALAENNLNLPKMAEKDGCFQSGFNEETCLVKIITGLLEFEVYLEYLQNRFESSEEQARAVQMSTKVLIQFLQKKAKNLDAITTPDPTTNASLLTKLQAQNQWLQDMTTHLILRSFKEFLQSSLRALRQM
# [2] = Inhibition of quorum sensing system in Pseudomonas aeruginosa assessed as reduction in LasI gene expression measured per well
# HepG2 = experiment: Cytotoxicity against human HepG2 cells assessed as cell growth inhibition incubated for 72 hrs by SRB assay; format: functional, cell-based; conditions: HepG2, 72 h
# Staphylococcus aureus = experiment: Antibacterial activity against Staphylococcus aureus assessed as zone of inhibition incubated for 24 hrs by well diffusion assay; format: functional
# Aspergillus niger = experiment: Antifungal activity against Aspergillus niger assessed as zone of inhibition incubated for 24 hrs by well diffusion assay; format: functional
# Bacillus subtilis = experiment: Antibacterial activity against Bacillus subtilis assessed as zone of inhibition incubated for 24 hrs by well diffusion assay; format: functional
# Escherichia coli = experiment: Antibacterial activity against Escherichia coli assessed as zone of inhibition incubated for 24 hrs by well diffusion assay; format: functional
# [3] = molecular target: Human immunodeficiency virus type 1 reverse transcriptase (Human immunodeficiency virus 1, UniProt Q72547); experiment: Inhibition of HIV-1 reverse transcriptase using rC.dG as primer/template
# [4] = Inhibition of HIV reverse transcriptase; set-up: species or system Human immunodeficiency virus
# [5] = molecular target: Coagulation factor VII/tissue factor (Homo sapiens, UniProt P08709); experiment: Inhibition of TF/VIIA complex (unknown origin); format: protein-complex assay
# Coagulation factor VII/tissue factor, sequence (P08709 61-212 limits assumed): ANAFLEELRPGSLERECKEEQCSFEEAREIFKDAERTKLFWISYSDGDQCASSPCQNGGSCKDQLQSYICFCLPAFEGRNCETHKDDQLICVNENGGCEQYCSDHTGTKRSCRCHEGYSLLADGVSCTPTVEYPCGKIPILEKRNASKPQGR
# Coagulation factor VII/tissue factor, sequence (P08709 213-466 limits assumed): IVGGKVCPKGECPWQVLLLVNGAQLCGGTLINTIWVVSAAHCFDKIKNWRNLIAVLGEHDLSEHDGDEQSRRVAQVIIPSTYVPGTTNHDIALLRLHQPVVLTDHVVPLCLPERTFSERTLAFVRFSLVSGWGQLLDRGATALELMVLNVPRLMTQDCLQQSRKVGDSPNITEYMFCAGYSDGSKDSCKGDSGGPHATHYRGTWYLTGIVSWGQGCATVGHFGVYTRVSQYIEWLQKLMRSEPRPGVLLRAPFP
# Coagulation factor VII/tissue factor, sequence (P13726 33-295 partner limits assumed): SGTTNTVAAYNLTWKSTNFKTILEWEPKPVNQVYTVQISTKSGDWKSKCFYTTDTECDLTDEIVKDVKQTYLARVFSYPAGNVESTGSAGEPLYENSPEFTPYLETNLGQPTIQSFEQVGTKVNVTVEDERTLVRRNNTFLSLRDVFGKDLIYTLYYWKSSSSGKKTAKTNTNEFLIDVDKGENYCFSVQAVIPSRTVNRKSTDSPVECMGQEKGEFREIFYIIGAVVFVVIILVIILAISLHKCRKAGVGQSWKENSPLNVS
structure (smiles),measurement,setting,value
Cc1ccc(S(=O)(=O)Nn2c3c(cc(-c4nc5ccccc5s4)c2=O)CCCC3)cc1,Activity,Coxsackievirus B4,<=70%
same,Activity,Human adenovirus 7,<=70%
same,Activity,Hepatovirus A,<=70%
same,Activity,Human alphaherpesvirus 1,<=70%
COc1ccc(-c2c(C(=O)Nc3ccc(O)cc3)c(N)[nH]c(=O)c2C#N)cc1,inhibition,[1],65.1%
CCCc1cc(O)c(CC)c(=O)[nH]1,MIC,[2],6.35 µg
CC[C@@H](C)c1cc(O)c(C)c(=O)[nH]1,MIC,[2],6.35 µg
N#Cc1cc(-c2nc3ccccc3s2)c(=O)n(NS(=O)(=O)c2ccccc2)c1N,Activity,Coxsackievirus B4,<=70%
same,Activity,Human adenovirus 7,<=70%
same,Activity,Hepatovirus A,<=70%
same,Activity,Human alphaherpesvirus 1,<=70%
CCc1c(O)cc(C(C)C)[nH]c1=O,MIC,[2],6.35 µg
COC(=O)c1ccccc1-n1c(N)c(C#N)c(-c2ccc(N(C)C)cc2)cc1=O,IC50,HepG2,2410 nM
COC(=O)c1ccccc1-n1c(N)c(C(N)=O)c(-c2ccc(C)cc2)cc1=O,IC50,HepG2,1340 nM
Cc1[nH]c(=O)c(C#N)c(-c2ccccc2Br)c1C(=O)Nc1ccccc1,diameter of the inhibition zone (DIZ),Staphylococcus aureus,4.25 mm
same,diameter of the inhibition zone (DIZ),Aspergillus niger,3 mm
same,diameter of the inhibition zone (DIZ),Bacillus subtilis,3.5 mm
same,diameter of the inhibition zone (DIZ),Escherichia coli,3.75 mm
Cc1c(O)cc(CC(C)C)[nH]c1=O,MIC,[2],6.35 µg
CCc1cc(NCc2cc3ccccc3o2)c(O)nc1C,IC50,[3],0.33 nM
CCc1cc(NCN2C(=O)c3ccccc3C2=O)c(O)nc1C,IC50,[4],0.058 nM
CC(C)Nc1ccc(-c2cc(N)cc([N+](=O)[O-])c2)n(CC(=O)NCc2ccc(C(=N)N)cc2)c1=O,IC50,[5],52 nM
CCc1cc(CCN2C(=O)c3ccccc3C2=O)c(O)nc1C,IC50,[4],6.2 nM
CC(C)Nc1ccc(-c2cc(C(=O)O)cc([N+](=O)[O-])c2)n(CC(=O)NCc2ccc(C(=N)N)cc2)c1=O,IC50,[5],118 nM
O=c1c(-c2nc3ccccc3s2)cc2c(n1NS(=O)(=O)c1ccc(Cl)cc1)CCCC2,Activity,Coxsackievirus B4,<=70%
same,Activity,Human adenovirus 7,<=70%
same,Activity,Hepatovirus A,<=70%
same,Activity,Human alphaherpesvirus 1,<=70%
